According to paper PMC12412968, “Indolicidin derivatives as potent dual-action antifungal and antibacterial agents for the treatment of skin infections: A comprehensive study from in vitro to in vivo evaluation” (PLOS One, 2025):
Converted amounts (≈) assume the structure as drawn. Where two headings read alike, the source gives them in different places. Ends that are not written are not given here.

Key:
red blood cell = experiment: Hemolysis assay; format: cell-based
Text: The hemolysis assay results indicated a concentration-dependent effect of the peptides on red blood cell membrane integrity.

Candida albicans = format: cell-based; details: 24 h
Procedure: (§1) Bacteria (S. aureus, P. aeruginosa, S. epidermidis, E. coli, K. pneumoniae, Enterococcus) and Candida albicans from ATCC were cultured in appropriate media, adjusted to 10^6 CFU/mL before testing. The bacteria and fungal, taken from a deep freezer, were revived by culturing them in a nutrient-rich medium, to grow and form distinct colonies. These colonies were then diluted with physiological saline to reach a turbidity equivalent to 0.5 McFarland, corresponding to a bacterial and fungal concentration of 10⁸ CFU/mL. This suspension was further diluted with 0.9% saline to achieve a concentration of 10⁶ CFU/mL. Subsequently, the bacterial and fungal suspension were diluted 100-fold in Brain-Heart Infusion (BHI) broth to achieve a final concentration of 10⁴ CFU/mL. This bacterial and fungal suspension were used to determine the MIC values in the experiments. Peptides (IND and IND-4,11K) were diluted by 2-fold serial dilution in the range of […] and tested in 96-well plates containing Muller-Hinton (MH) medium. After adding bacteria (10^4 CFU/mL), the samples were incubated at 37°C for 24 h. MIC was determined as the lowest peptide concentration at which no bacterial growth was observed by measuring the optical density OD620 nm. […] The positive controls were Streptomycin for Gram-negative bacteria and Penicillin for Gram-positive bacteria. The negative control was 1X PBS solution. The positive control for antifungal activity was Nystatin.All experiments were performed in triplicate.

[1] = system: S. aureus, S. epidermidis, E. coli, K. pneumoniae, E. faecium, and P. aeruginosa; format: cell-based; details: Staphylococcus aureus, Staphylococcus epidermidis and Enterococcus faecium
Procedure: as §1

Enterococcus faecium = format: cell-based; details: 24 h
Procedure: as §1

Staphylococcus aureus = format: cell-based; details: 24 h
Procedure: as §1

[2] = system: Staphylococcus epidermidis; format: cell-based; details: 24 h
Procedure: as §1

Pseudomonas aeruginosa = format: cell-based; details: 24 h
Procedure: as §1

Klebsiella pneumoniae = format: cell-based; details: 24 h
Procedure: as §1

trypsin = experiment: Enzymatic stability with trypsin; format: in vitro ADME; details: 40 µM in PBS pH 8.0, 0.0005% trypsin, 37°C, 600 rpm, 15 and 30 minutes, HPLC-DAD 280 nm, duplicate
[3] = 64 µM in PBS pH 7.4, 25, 45, 65, 85°C and 37°C, shaking 600 rpm, HPLC-DAD 280 nm, tryptophan internal standard, duplicate
Procedure: Peptides were dissolved in phosphate-buffered saline (PBS, pH 7.0) and 10% SDS solution. The peptide concentration was determined by direct weighing and mixing. The secondary structure was analyzed using a circular dichroism (CD) spectrometer. Peptides (64 µM) were dissolved in PBS (pH 7.4) with tryptophan as an internal standard. The solution was incubated at 25°C, 45°C, 65°C, and 85°C with shaking at 600 rpm. Peptide quantification was performed using HPLC-DAD at 280 nm with an injection volume of 20 µL. Each experiment was conducted in duplicate, and data were processed using Excel based on peak areas of tryptophan and peptide. Peptides (40 µM) were dissolved in PBS (pH 8.0) and incubated with 0.0005% trypsin at 37°C under shaking (600 rpm). Samples were collected at 0, 15, and 30 minutes and analyzed by HPLC-DAD at 280 nm with an injection volume of 40 µL [20, 21].

[4] = broth dilution, 96-well, MH medium, 10^4 CFU/mL, 37°C, OD620, triplicate
[5] = plated from MIC well and higher onto MH agar, triplicate

CC[C@H](C)[C@H](N)C(=O)N[C@@H](CC(C)C)C(=O)N1CCC[C@H]1C(=O)N[C@@H](Cc1c[nH]c2ccccc12)C(=O)N[C@@H](CCCCN)C(=O)N[C@@H](Cc1c[nH]c2ccccc12)C(=O)N1CCC[C@H]1C(=O)N[C@@H](Cc1c[nH]c2ccccc12)C(=O)N[C@@H](Cc1c[nH]c2ccccc12)C(=O)N1CCC[C@H]1C(=O)N[C@@H](Cc1c[nH]c2ccccc12)C(=O)N[C@@H](CCCNC(=N)N)C(=O)N[C@@H](CCCNC(=N)N)C(N)=O [IND, Indolicidin]
Hemolysis activity (red blood cell; peptide 2 uM): 3.04 ± 0.29% | Hemolysis activity (red blood cell; peptide 4 uM): 2.51 ± 0.24% | Hemolysis activity (red blood cell; peptide 8 uM): 3.05 ± 0.34% | Hemolysis activity (red blood cell; peptide 16 uM): 4.89 ± 0.03% | Hemolysis activity (red blood cell; peptide 32 uM): 10.33 ± 1.06% | Hemolysis activity (red blood cell; peptide 64 uM): 18.09 ± 1.57% | Hemolysis activity (red blood cell; peptide 128 uM): 30.91 ± 2.27% | MIC (Candida albicans; [4]): 64 µM (≈ 122 µg/mL) | MBC (Candida albicans; [5]): >128 µM | MIC (range over organisms) [1]: 8 to 64 µM | MIC (Enterococcus faecium; [4]): 32 µM (≈ 61 µg/mL) | MBC (Enterococcus faecium; [5]): 32 µM (≈ 61 µg/mL) | MIC (Staphylococcus aureus; [4]): 64 µM (≈ 122 µg/mL) | MBC (Staphylococcus aureus; [5]): 64 µM (≈ 122 µg/mL) | MIC [2, 4]: 8 µM (≈ 15.3 µg/mL) | MBC [2, 5]: 8 µM (≈ 15.3 µg/mL) | MIC (Pseudomonas aeruginosa; [4]): >128 µM | MBC (Pseudomonas aeruginosa; [5]): >128 µM | MIC (Klebsiella pneumoniae; [4]): >128 µM | MBC (Klebsiella pneumoniae; [5]): >128 µM | Enzymatic stability with trypsin (trypsin): significant degradation | Thermal stability (retention time and peak area) [3]: remained largely unchanged

ILKWKWPWWKWRR-NH2 [IND-4,11K]
MBC (Candida albicans): 32 µM | MIC (Candida albicans): 32 µM | MBC (Enterococcus faecium): 32 µM | MIC (Enterococcus faecium): 32 µM | MBC (Staphylococcus aureus): 48 µM | MIC (Staphylococcus aureus): 48 µM | MBC [2]: 8 µM | MIC [2]: 8 µM | MBC (Pseudomonas aeruginosa): 128 µM | MIC (Pseudomonas aeruginosa): 128 µM | MBC (Klebsiella pneumoniae): 128 µM | MIC (Klebsiella pneumoniae): 128 µM | Enzymatic stability with trypsin (trypsin): significant degradation | Thermal stability (retention time and peak area) [3]: remained largely unchanged
